The source of these data is patent publication US11685714B2, “Prodrugs of cytotoxic active agents having enzymatically cleavable groups” (BAYER PHARMA AKTIENGESELLSCHAFT, priority 2016, dated 2023).

Data set [1] is described as follows: Stability in rat liver lysosomes (chapter C1c). The data set is classed as in vitro ADME.
A short description of data set [2]: Assay for determination of stability in rat liver lysosomes. The data set is classed as in vitro ADME. As to conditions: over 24 h, 37° C. The protocol: To determine the lysosomal stability of compounds A and B, lysosomal enzymes were isolated from rat liver cells. Compounds A and B were each added to this lysosomal extract in order to examine stability under lysosomal conditions. The proteolytic enzyme legumain is expressed only in a very small amount, if any, in rat liver lysosomes (Chen, J-M. et al 1997). To monitor the enzymatic activity of the lysosomal enzymes, a cathepsin-specific substrate was added.
First of all, a fresh rat liver was removed, weighed and immediately placed on ice in homogenization medium (0.25 M sucrose, 1 mM EDTA, 10 mM HEPES, pH7). The liver was comminuted and a change of medium was undertaken. The rat livers were homogenized with 4 times the amount of the rat liver weight at 750 rpm in a Potter (B. Braun). The homogenate was centrifuged at 1000 g for 10 min and the supernatant was filtered. In the next step, with the aid of an ultracentrifuge, the “light mitochondrial fraction” (LMF) was centrifuged out of the supernatant at 26 500 g over 20 min. […]
The sucrose was added from a 2.3 M stock solution of the particular percentage. […] To monitor the lysis, the protein content of the lysed lysosomal fraction was monitored with the aid of a BCA assays (Pierce BCA protein assay kit). […] For the RP-HPLC LCMS analysis, the samples were diluted with 300 μl of 10 mM ammonium acetate buffer (pH 6.8) and analysed.

The subject of data set [3] is SK-HEP-1: human liver cell cancer line. Briefly: MTT assay on SK-HEP-1. The data set is classed as cell-based. The conditions noted are these: SK-HEP1, 96 h, growth inhibition, 96 h incubation. The protocol: (§1) The analysis of the cytotoxic effects of the ADCs was carried out with various cell lines:
(§2) The cells were cultivated by the standard method as stated by the American Tissue Culture Collection (ATCC) or the Leibniz-lnstitut DSMZ-Deutsche Sammlung von Mikroorganismen und Zellkulturen GmbH (DSMZ) for the cell lines in question.
(§3) The cells were then incubated in an incubator at 37° C. and 5% carbon dioxide. […] To this end, the MTT reagent was incubated with the cells for 4 h, followed by lysis of the cells overnight by addition of the detergent. […] The measured data were used to calculate the ICo50 of the growth inhibition using the DRC (dose response curve). The proliferation of cells which were not treated with test substance but were otherwise identically treated was defined as the 100% figure.
(Formazan colour is commonly taken as a measure of viable cells.)

The subject of data set [4] is NCI-H292: human mucoepidermoid lung carcinoma cells. Put plainly: MTT assay on NCI-H292. The data set is classed as cell-based. As to conditions: NCI-H292, 96 h, growth inhibition, 96 h incubation. The protocol:
as §1, §2, §3

Data set [5] has as its target T1, recombinant human legumain (Homo sapiens, UniProt Q99538).
T1 construct: purchased R&D Systems 2199-CY
T1 sequence (Q99538 26-323 limits assumed): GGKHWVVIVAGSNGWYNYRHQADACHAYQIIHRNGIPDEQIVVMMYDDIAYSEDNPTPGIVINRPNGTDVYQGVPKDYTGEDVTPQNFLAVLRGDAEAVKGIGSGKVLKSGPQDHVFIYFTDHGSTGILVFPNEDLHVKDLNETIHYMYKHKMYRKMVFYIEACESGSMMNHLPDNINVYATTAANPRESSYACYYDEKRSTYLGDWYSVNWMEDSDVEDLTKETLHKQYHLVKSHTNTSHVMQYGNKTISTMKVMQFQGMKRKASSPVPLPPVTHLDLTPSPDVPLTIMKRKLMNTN
Briefly: Legumain assay (cleavage of legumain-cleavable prodrugs). The data set is classed as biochemical. The conditions noted are these: within 24 h; rh legumain, pH 5.0. The protocol: The legumain assay was conducted with recombinant human enzyme. The rh legumain enzyme solution (catalogue #2199-CY, R&D Systems) was diluted to the desired concentration in 50 mM Na acetate buffer/100 mM NaCl, pH4.0 and preincubated at 37° C. for 2 h. rh legumain was then adjusted to a final concentration of 1 ng/μl in 50 mM MES buffer, 250 mM NaCl, pH 5.0. For every legumain-cleavable prodrug to be examined, a mixture was made up in a micro reaction vessel (0.5 ml, from Eppendorf). For this purpose, the substrate solution was adjusted to the desired concentration (double concentration) with 50 mM MES buffer, 250 mM NaCl, pH 5.0. For the kinetic measurement of the enzymatic reaction, 250 μl of the legumain solution were first initially charged and the enzyme reaction was started by adding 250 μl of the substrate solution (final concentration: single concentration). At different times, 50 μl samples were taken. This sample was admixed immediately with 100 μl of ice-cold methanol in order to stop the enzymatic reaction and then frozen at −20° C. The times selected for sampling were after 0.5 h, 1 h, 3 h and 24 h. The samples were then analysed by means of RP-HPLC analysis and by LC-MS analysis. The determination of the toxophor released enabled the determination of the half-life t½ of the enzymatic reaction (FIG. 1). […]

In general, IC50 refers to the concentration that inhibits the measured activity by half.

In the case of `CNC(=O)[C@H](CCN(C(=O)CO)[C@@H](c1cc(-c2cc(F)ccc2F)cn1Cc1ccccc1)C(C)(C)C)NC(=O)[C@H](CC(N)=O)NC(=O)[C@@H](C)NC(=O)[C@H](C)NC(=O)Cc1ccncc1` [Example R3r-LDL, N-(Pyridin-4-ylacetyl)-L-alanyl-D-alanyl-N^1-[(2S)-4-[{(1R)-1-[1-benzyl-4-(2,5-difluorophenyl)-1H-pyrrol-2-yl]-2,2-dimethylpropyl}(glycoloyl)amino]-1-(methylamino)-1-oxobutan-2-yl]-L-aspartamide], the “stability in rat liver lysosomes (in words)” value in data set [1] is given as “high stability”. The “stability in rat liver lysosomal extract” value in data set [2] is given as “stable”. In addition, the half-maximal inhibitory concentration (IC50) in data set [3] was determined as 0.283 µM; in data set [4] it was 0.19 µM. The “extent of cleavage to the target compound by legumain” value in data set [5] is recorded as “about 20%”.
